Measured values from patent US20250197343A1, “CATIONIC LIPID” (TAKEDA PHARMACEUTICAL COMPANY LIMITED, priority 2021, published 2025).
Like-named read-outs stand apart in the source and are kept apart here.

Experiments:
Huh-7 cells = experiment: Evaluation of viability using Huh-7 cells (Test Example 2); assay type: cell-based
Procedure: Huh-7 cells were seeded in a 96-well plate, and PBS, the Luc DNA-encapsulated lipid nanoparticles obtained in the aforesaid Production Example by using the cationic lipids of the Examples shown in Table 3, or Luc DNA-encapsulated lipid nanoparticles for control which were obtained in the same manner as in the aforesaid Production Example except that a known lipid, MC3 (DLin-MC3-DMA) or ALC-0315, was used instead of the cationic lipids of the Examples were added thereto (final concentration: 0.1 μg/mL and 0.3 μg/mL), followed by evaluation of viability (CellTiter-Fluor Cell Viability Assay, Promega Corporation). Taking the viability of dead cell group as 0% and the viability of the PBS group as 100%, the viability of each of the lipid particle groups was calculated. Higher viability indicates higher safety of the lipid particles. When the cationic lipids of the Examples were used, an improvement in safety compared to the control groups of MC3 and ALC-0315 was observed.

[1] = Rate of encapsulation of Luc DNA in lipid nanoparticles; assay type: physicochemical; set-up: unit: %; conditions: Luc DNA-encapsulated lipid nanoparticles; cationic lipid:DPPC:cholesterol:GM-020=60:10.6:28:1.4 molar ratio
Procedure, shortened: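 Luc DNA-LNPs (cationic lipid:DPPC:cholesterol:GM-020 = 60:10.6:28:1.4 molar) formed by microfluidic mixing with DNA in 10 mM MES pH 5.5, then dialyzed into PBS. RiboGreen fluorescence measured with and without Triton X-100; encapsulation rate is the encapsulated fraction of total nucleic acid.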

[2] = Particle size of Luc DNA-encapsulated lipid nanoparticles; assay type: physicochemical; conditions: cationic lipid:DPPC:cholesterol:GM-020=60:10.6:28:1.4 molar ratio
Procedure, shortened: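 LNPs of cationic lipid:DPPC:cholesterol:GM-020 (60:10.6:28:1.4 molar) encapsulating luciferase DNA, made by microfluidic mixing with DNA in 10 mM MES pH 5.5, dialysed into PBS, stored in 20% sucrose/PBS at −80 °C. Size by dynamic light scattering, reported as cumulant Z-average.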

ICrl:CD1 (ICR) mice = experiment: Mouse bioluminescence imaging evaluation (Test Example 1); assay type: in vivo; conditions: Luc DNA-encapsulated lipid nanoparticles 10 mL/kg i.v. to ICR mice; IVIS total flux 15 minutes after luciferin i.p.
Procedure, shortened: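 ICR mice received Luc DNA-encapsulated lipid nanoparticles i.v. (10 mL/kg), then luciferin 15 mg/mL i.p. (10 mL/kg). Ventral IVIS imaging under isoflurane 15 min after luciferin; total flux scored A (≥3.0E+07), B (1.0E+07 to <3.0E+07), C (<1.0E+07).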

[3] = Huh-7 cells, Luc DNA-encapsulated lipid nanoparticles, final concentration 0.1 μg/mL, PBS group = 100%, dead cell group = 0%
[4] = Huh-7 cells, Luc DNA-encapsulated lipid nanoparticles, final concentration 0.3 μg/mL, PBS group = 100%, dead cell group = 0%

SMILES | Viability 0.1 μg/ml (%) (Huh-7 cells; [3]) | Viability 0.3 μg/ml (%) (Huh-7 cells; [4]) | Rate of encapsulation [1] | Particle size (nm) [2] [nm] | Luminescence (ICrl:CD1 (ICR) mice) | Viability 0.1 μg/ml (%) (Huh-7 cells) | Viability 0.3 μg/ml (%) (Huh-7 cells)
CCCCCCCCC(CCCCCC)C(=O)OCCCCCCN(CCCCO)CCCCCCOC(=O)C(CCCCCC)CCCCCCCC (stereo not drawn) [ALC-0315, reference compound] | 89 | 68 |  |  |  |  | 
CCCCCCCOC(=O)CCCCC(=O)OCC(COC(=O)CCCCC(=O)OCCCCCCC)(COC(=O)CCCN(C)C)COC(=O)CC(CCCCC)CCCCC [Example 13, 1,1′-[2-({[4-(Dimethylamino)butanoyl]oxy}methyl)-2-{[(3-pentyloctanoyl)oxy]methyl}propane-1,3-diyl] 6,6′-diheptyl dihexanedioate] | 112 | 105 | 96.3 | 136.5 | A (A represents luminescence of 3.0E+07 or more) |  | 
CCCCCCCOC(=O)CCCCC(=O)OCC(COC(=O)CCCCN(C)C)(COC(=O)CC(CCCCC)CCCCC)COC(=O)CC(CCCCC)CCCCC [Example 18, 2-({[5-(Dimethylamino)pentanoyl]oxy}methyl)-3-[(3-pentyloctanoyl)oxy]-2-{[(3-pentyloctanoyl)oxy]methyl}propyl heptyl hexanedioate] | 110 | 106 | 96.6 | 138.9 | A (A represents luminescence of 3.0E+07 or more) |  | 
CCCCCCCOC(=O)CCCCC(=O)OCC(COC(=O)CCCCC(=O)OCCCCCCC)(COC(=O)CCCN(C)C)COC(=O)CC(CCC)CCCCCCC (stereo not drawn) [Example 28, 1,1′-[2-({[4-(Dimethylamino)butanoyl]oxy}methyl)-2-{[(3-propyldecanoyl)oxy]methyl}propane-1,3-diyl] 6,6′-diheptyl dihexanedioate] | 113 | 110 | 94.9 | 137.3 | A (A represents luminescence of 3.0E+07 or more) |  | 
CCCCCC(CCCCC)COC(=O)CCC(=O)OCC(COC(=O)CCCN(C)C)(COC(=O)CCC(=O)OCC(CCCCC)CCCCC)COC(=O)CCC(=O)OCC(CCCCC)CCCCC [Example 37, 1,1′-{2-({[4-(Dimethylamino)butanoyl]oxy}methyl)-2-[({4-oxo-4-[(2-pentylheptyl)oxy]butanoyl}oxy)methyl]propane-1,3-diyl} 4,4′-bis(2-pentylheptyl) dibutanedioate] | 111 | 98 | 97.0 | 124.1 | A (A represents luminescence of 3.0E+07 or more) |  | 
CCCCCC(CCCCC)OC(=O)CCC(=O)OCC(COC(=O)CCCN(C)C)(COC(=O)CCC(=O)OC(CCCCC)CCCCC)COC(=O)CCC(=O)OC(CCCCC)CCCCC [Example 39, 1,1′-{2-({[4-(Dimethylamino)butanoyl]oxy}methyl)-2-[({4-oxo-4-[(undecan-6-yl)oxy]butanoyl}oxy)methyl]propane-1,3-diyl} 4,4′-diundecan-6-yl dibutanedioate] |  |  | 98.5 | 135.2 | B (B represents luminescence of 1.0E+0.7 or more and less than 3.0E+07) | 113 | 94
CCCCCCCCCOC(=O)CCCCC(=O)OCC(COC(=O)CCCCC(=O)OCCCCCCCCC)(COC(=O)CCCCC(=O)OCCCCCCCCC)COC(=O)CCCN(C)C [Example 41, 1,1′-[2-({[4-(Dimethylamino)butanoyl]oxy}methyl)-2-({[6-(nonyloxy)-6-oxohexanoyl]oxy}methyl)propane-1,3-diyl] 6,6′-dinonyl dihexanedioate] | 111 | 101 | 80.3 | 138.0 | B (B represents luminescence of 1.0E+0.7 or more and less than 3.0E+07) |  | 
CCCCCCCCCCOC(=O)CCCCC(=O)OCC(COC(=O)CCCCC(=O)OCCCCCCCCCC)(COC(=O)CCCN(C)C)COC(=O)CC(CCCCC)CCCCC [Example 45, 1,1′-Didecyl 6,6′-[2-({[4-(dimethylamino)butanoyl]oxy}methyl)-2-{[(3-pentyloctanoyl)oxy]methyl}propane-1,3-diyl] dihexanedioate] | 108 | 103 | 95.6 | 119.0 | A (A represents luminescence of 3.0E+07 or more) |  | 
CCCCCCCCCCOC(=O)CCCCC(=O)OCC(COC(=O)CCCN(C)C)(COC(=O)CC(CCCCC)CCCCC)COC(=O)CC(CCCCC)CCCCC [Example 51, Decyl 2-({[4-(dimethylamino)butanoyl]oxy}methyl)-3-[(3-pentyloctanoyl)oxy]-2-{[(3-pentyloctanoyl)oxy]methyl}propyl hexanedioate] | 104 | 78 | 98.2 | 83.9 | B (B represents luminescence of 1.0E+0.7 or more and less than 3.0E+07) |  | 
CCCCCCCOC(=O)CCCCC(=O)OCC(COC(=O)CCCCC(=O)OCCCCCCC)(COC(=O)CCCN(C)CCO)COC(=O)CC(CCCCC)CCCCC [Example 93, 1,1′-Diheptyl 6,6′-(2-[({4-[(2-hydroxyethyl)(methyl)amino]butanoyl}oxy)methyl]-2-{[(3-pentyloctanoyl)oxy]methyl}propane-1,3-diyl) dihexanedioate] | 105 | 101 | 94.8 | 145.6 | B (B represents luminescence of 1.0E+0.7 or more and less than 3.0E+07) |  | 
CCCCCC(CCCCC)CC(=O)OCC(COC(=O)CCCCC(=O)OCC(CCC)CCC)(COC(=O)CCCCC(=O)OCC(CCC)CCC)COC(=O)CCCN(C)C [Example 115, 1,1′-[2-({[4-(Dimethylamino)butanoyl]oxy}methyl)-2-{[(3-pentyloctanoyl)oxy]methyl}propane-1,3-diyl] 6,6′-bis(2-propylpentyl) dihexanedioate] | 110 | 100 | 95.7 | 109.6 | A (A represents luminescence of 3.0E+07 or more) |  | 
CCCCCCCCC(C(=O)OC)C(=O)OCC(COC(=O)CCCN(CC)C(C)C)(COC(=O)CC(CCCCC)CCCCC)COC(=O)C(CCCCCCCC)C(=O)OC (stereo not drawn) [Example 133, 1,1′-(2-[({4-[Ethyl(propan-2-yl)amino]butanoyl}oxy)methyl]-2-{[(3-pentyloctanoyl)oxy]methyl}propane-1,3-diyl) 3,3′-dimethyl bis(octylpropanedioate)] |  |  | 95.3 | 133.4 | C (C represents luminescence of less than 1.0E+07) |  | 
CCCCCCCCCCC(C(=O)OC)C(=O)OCC(COC(=O)CCCN(C)C)(COC(=O)CC(CCCCC)CCCCC)COC(=O)C(CCCCCCCCCC)C(=O)OC (stereo not drawn) [Example 134, 1,1′-[2-({[4-(Dimethylamino)butanoyl]oxy}methyl)-2-{[(3-pentyloctanoyl)oxy]methyl}propane-1,3-diyl] 3,3′-dimethyl bis(decylpropanedioate)] |  |  | 94.5 | 103.0 | A (A represents luminescence of 3.0E+07 or more) |  | 
CCCCCCCCCCC(C(=O)OC)C(=O)OCC(COC(=O)CCCN(CC)C(C)C)(COC(=O)CC(CCCCC)CCCCC)COC(=O)C(CCCCCCCCCC)C(=O)OC (stereo not drawn) [Example 135, 1,1′-(2-[({4-[Ethyl(propan-2-yl)amino]butanoyl}oxy)methyl]-2-{[(3-pentyloctanoyl)oxy]methyl}propane-1,3-diyl) 3,3′-dimethyl bis(decylpropanedioate)] |  |  | 97.1 | 80.1 | A (A represents luminescence of 3.0E+07 or more) |  | 
CCCCC/C=C\C/C=C\CCCCCCCCC(CCCCCCCC/C=C\C/C=C\CCCCC)OC(=O)CCCN(C)C [MC3, reference compound] | 97 | 49 |  |  |  |  | 
